Measured values reported in patent publication US20260355323A1, “CEREBLON-RECRUITING BCL-XL/BCL-2 DUAL DEGRADERS” (University of Florida Research Foundation, Incorporated, priority 2022, published 2026).

Columns and labels:
platelets = conditions: animals and/or humans; cited from earlier work
[1] = tested on: MOLT-4 acute lymphoblastic leukemia cells; experiment: Cell viability, tetrazolium-based MTS assay, MOLT-4; conditions: Homo sapiens, MOLT-4, 48 h; read-out: Anti-Cancer Activity EC50 (48 hr), MOLT-4
Method: (§1) Acute lymphoblastic leukemia cells (MOLT-4 and RS4;11) were incubated with increasing concentrations of Bcl-xL/Bcl-2 degraders for 48 h. Cell viability was measured by tetrazolium-based MTS assay.

Bcl-xL [2] = biological target: T1, Bcl-xL (Homo sapiens, UniProt Q07817); experiment: Bcl-xL protein degradation in Jurkat cells (immunoblot); type: cell-based; conditions: 16 h
T1 construct: immunoblot after 16 h degrader treatment
Method: (§2) Jurkat and Hela cells were incubated with increasing concentrations of test compounds for 16 h. The cells were harvested and lysed in RIPA lysis buffer supplemented with protease and phosphatase inhibitor cocktails. An equal amount of protein (20 μg/lane) was resolved on a pre-cast 4-20% SDS-PAGE gel. Proteins were subsequently transferred to NOVEX PVDF membranes by electrophoresis. The membranes were blocked in blocking buffer (5% non-fat dry milk in TBS-T), and incubated with primary antibodies (at optimized concentrations) overnight at 4° C. After three washings in TBS-T, the membranes were incubated with an appropriate FIRP-conjugated secondary antibody for 1 h at room temperature. After extensive washing for three times, the proteins of interest were detected with ECL western blotting detection reagents and recorded with autoradiography (Pierce Biotech, Rockford, IL, USA). The primary antibodies for Bcl-xL (Cat #2762), Bcl-2 (Cat #2872), Bcl-w (Cat #2724) and β-actin (Cat #4970) were purchased from Cell Signaling Technology. The relative band intensity was measured using ImageJ software and normalized to β-actin.

[3] = tested on: RS4;11 acute lymphoblastic leukemia cells; experiment: Cell viability, tetrazolium-based MTS assay, RS4;11; conditions: Homo sapiens, RS4;11, 48 h, read-out: Anti-Cancer Activity EC50 (48 hr), RS4
Method: as §1

Bcl-xL [4] = biological target: T1, Bcl-xL; experiment: Bcl-xL protein degradation in Hela cells (immunoblot); type: cell-based; conditions: 16 h
Method: as §2

[5] = tested on: WI-38 irradiation-induced senescent cells (IR-SC); experiment: Senolytic activity, cell viability (PrestoBlue HS), WI-38 IR-SC; type: cell-based; conditions: Homo sapiens, 72 h
Method: (§3) To induce senescence in WI-38 and HUVEC, cells were subjected to x-ray irradiation at 20 Gray using X-RAD 320 biological irradiator. Following between 10 to 15 days after irradiation, senescence was induced in cells, and irradiation-induced senescent cells (IR-SC) were then used for cell viability and Western blotting tests.
(§4) WI-38 and HUVEC cells were incubated with increasing concentrations of degraders for 72 h. Cell viability was measured using PrestoBlue HS cell viability reagent.

WI-38 NC = experiment: Senolytic activity, cell viability (PrestoBlue HS), WI-38 NC; type: cell-based; conditions: Homo sapiens, 72 h
Method: as §4

[6] = tested on: HUVEC irradiation-induced senescent cells (IR-SC); experiment: Senolytic activity, cell viability (PrestoBlue HS), HUVEC IR-SC; type: cell-based; conditions: Homo sapiens, 72 h
Method: as §3, §4

HUVEC NC = experiment: Senolytic activity, cell viability (PrestoBlue HS), HUVEC NC; type: cell-based
Method: as §4

T1 sequence (Q07817 whole entry): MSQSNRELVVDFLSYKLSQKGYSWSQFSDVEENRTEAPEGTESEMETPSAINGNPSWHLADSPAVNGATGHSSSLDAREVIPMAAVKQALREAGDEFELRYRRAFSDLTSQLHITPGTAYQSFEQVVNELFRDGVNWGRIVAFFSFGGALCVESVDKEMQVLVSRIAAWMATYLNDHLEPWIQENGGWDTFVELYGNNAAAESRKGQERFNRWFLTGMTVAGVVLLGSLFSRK
T1 sequence (Q96SW2 whole entry partner): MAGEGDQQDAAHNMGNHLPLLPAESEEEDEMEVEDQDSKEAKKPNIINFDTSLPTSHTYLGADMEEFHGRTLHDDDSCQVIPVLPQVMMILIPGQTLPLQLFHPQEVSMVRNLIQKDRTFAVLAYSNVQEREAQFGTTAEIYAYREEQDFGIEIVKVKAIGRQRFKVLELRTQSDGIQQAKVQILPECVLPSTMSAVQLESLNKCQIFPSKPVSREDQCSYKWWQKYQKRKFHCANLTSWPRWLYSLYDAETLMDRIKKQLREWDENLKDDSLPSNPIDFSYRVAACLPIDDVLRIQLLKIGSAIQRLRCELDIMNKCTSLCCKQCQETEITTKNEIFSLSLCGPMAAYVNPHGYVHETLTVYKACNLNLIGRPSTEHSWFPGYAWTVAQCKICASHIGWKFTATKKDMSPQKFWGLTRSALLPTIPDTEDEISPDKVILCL

EC50 [1] | EC50 [3] | SMILES | dose-limiting thrombocytopenia (platelets) | degradation of Bcl-xL (Bcl-xL [2]) | degradation of Bcl-xL (Bcl-xL [4]) | EC50 [5] | EC50 (WI-38 NC) | EC50 [6] | Senolytic Activity EC50 (72 hr), HUVEC NC (HUVEC NC)
 |  | CN(C)CC[C@H](CSc1ccccc1)Nc1ccc(S(=O)(=O)NC(=O)c2ccc(N3CCN(Cc4ccccc4-c4ccc(Cl)cc4)CC3)cc2)cc1[N+](=O)[O-] [ABT-737] | dose-limiting thrombocytopenia has been observed |  |  |  |  |  | 
 |  | Cc1c(S(C)(=O)=O)c(-c2cc(F)cc(N3CCN(c4ccc(NS(=O)(=O)c5ccc(N[C@H](CCN6CCC(O)CC6)CSc6ccccc6)c(S(=O)(=O)C(F)(F)F)c5)cc4)CC3)c2)c(-c2ccc(Cl)cc2)n1C(C)C [BM-1197] | dose-limiting thrombocytopenia has been observed |  |  |  |  |  | 
< 1 nM | < 1 nM | C[C@@]1(CN2CCN(C(=O)CN3CCN(c4ccc5c(c4)CN(C4CCC(=O)NC4=O)C5=O)CC3)CC2)CCC(c2ccc(Cl)cc2)=C(CN2CCN(c3ccc(C(=O)NS(=O)(=O)c4ccc(N[C@H](CCN5CCCOCC5)CSc5ccccc5)c(S(=O)(=O)C(F)(F)F)c4)cc3)CC2)C1 (stereo partly drawn) [Compound 1, N-((4-(((R)-4-(1,4-oxazepan-4-yl)-1-(phenylthio)butan-2-yl)amino)-3-((trifluoromethyl)sulfonyl)phenyl)sulfonyl)-4-(4-(((4R)-4′-chloro-4-((4-(2-(4-(2-(2,6-dioxopiperidin-3-yl)-1-oxoisoindolin-5-yl)piperazin-1-yl)acetyl)piperazin-1-yl)methyl)-4-methyl-3,4,5,6-tetrahydro-[1,1′-biphenyl]-2-yl)methyl)piperazin-1-yl)benzamide] |  | degrade Bcl-xL in a dose-dependent manner | degrade Bcl-xL in a dose-dependent manner | 1 to 10 nM | > 10000 nM |  | 
< 1 nM | < 1 nM | C[C@@]1(CN2CCN(C(=O)CN3CCN(CC#Cc4ccc5c(c4)CN(C4CCC(=O)NC4=O)C5=O)CC3)CC2)CCC(c2ccc(Cl)cc2)=C(CN2CCN(c3ccc(C(=O)NS(=O)(=O)c4ccc(N[C@H](CCN5CCCOCC5)CSc5ccccc5)c(S(=O)(=O)C(F)(F)F)c4)cc3)CC2)C1 (stereo partly drawn) [Compound 4, N-((4-(((R)-4-(1,4-oxazepan-4-yl)-1-(phenylthio)butan-2-yl)amino)-3-((trifluoromethyl)sulfonyl)phenyl)sulfonyl)-4-(4-(((4R)-4′-chloro-4-((4-(2-(4-(3-(2-(2,6-dioxopiperidin-3-yl)-1-oxoisoindolin-5-yl)prop-2-yn-1-yl)piperazin-1-yl)acetyl)piperazin-1-yl)methyl)-4-methyl-3,4,5,6-tetrahydro-[1,1′-biphenyl]-2-yl)methyl)piperazin-1-yl)benzamide] |  | degrade Bcl-xL in a dose-dependent manner | degrade Bcl-xL in a dose-dependent manner | 1 to 10 nM | > 10000 nM |  | 
< 1 nM | < 1 nM | C[C@@]1(CN2CCC(CN3CCN(c4ccc5c(c4)CN(C4CCC(=O)NC4=O)C5=O)CC3)CC2)CCC(c2ccc(Cl)cc2)=C(CN2CCN(c3ccc(C(=O)NS(=O)(=O)c4ccc(N[C@H](CCN5CCCOCC5)CSc5ccccc5)c(S(=O)(=O)C(F)(F)F)c4)cc3)CC2)C1 (stereo partly drawn) [Compound 11, N-((4-(((R)-4-(1,4-oxazepan-4-yl)-1-(phenylthio)butan-2-yl)amino)-3-((trifluoromethyl)sulfonyl)phenyl)sulfonyl)-4-(4-(((4R)-4′-chloro-4-((4-((4-(2-(2,6-dioxopiperidin-3-yl)-1-oxoisoindolin-5-yl)piperazin-1-yl)methyl)piperidin-1-yl)methyl)-4-methyl-3,4,5,6-tetrahydro-[1,1′-biphenyl]-2-yl)methyl)piperazin-1-yl)benzamide] |  | degrade Bcl-xL in a dose-dependent manner | degrade Bcl-xL in a dose-dependent manner | 1 to 10 nM | > 10000 nM | < 1 nM | 
< 1 nM | < 1 nM | C[C@@]1(CN2CCC(CN3CCC(CN4CCN(c5ccc6c(c5)CN(C5CCC(=O)NC5=O)C6=O)CC4)CC3)CC2)CCC(c2ccc(Cl)cc2)=C(CN2CCN(c3ccc(C(=O)NS(=O)(=O)c4ccc(N[C@H](CCN5CCCOCC5)CSc5ccccc5)c(S(=O)(=O)C(F)(F)F)c4)cc3)CC2)C1 (stereo partly drawn) [Compound 12, N-((4-(((R)-4-(1,4-oxazepan-4-yl)-1-(phenylthio)butan-2-yl)amino)-3-((trifluoromethyl)sulfonyl)phenyl)sulfonyl)-4-(4-(((4R)-4′-chloro-4-((4-((4-((4-(2-(2,6-dioxopiperidin-3-yl)-1-oxoisoindolin-5-yl)piperazin-1-yl)methyl)piperidin-1-yl)methyl)piperidin-1-yl)methyl)-4-methyl-3,4,5,6-tetrahydro-[1,1′-biphenyl]-2-yl)methyl)piperazin-1-yl)benzamide] |  | degrade Bcl-xL in a dose-dependent manner | degrade Bcl-xL in a dose-dependent manner | 10 to 100 nM | > 10000 nM |  | 
< 1 nM | < 1 nM | C[C@@]1(CN2CCC(c3ccc4c(c3)CN(C3CCC(=O)NC3=O)C4=O)CC2)CCC(c2ccc(Cl)cc2)=C(CN2CCN(c3ccc(C(=O)NS(=O)(=O)c4ccc(N[C@H](CCN5CCCOCC5)CSc5ccccc5)c(S(=O)(=O)C(F)(F)F)c4)cc3)CC2)C1 (stereo partly drawn) [Compound 128, N-((4-(((R)-4-(1,4-oxazepan-4-yl)-1-(phenylthio)butan-2-yl)amino)-3-((trifluoromethyl)sulfonyl)phenyl)sulfonyl)-4-(4-(((4R)-4′-chloro-4-((4-(2-(2,6-dioxopiperidin-3-yl)-1-oxoisoindolin-5-yl)piperidin-1-yl)methyl)-4-methyl-3,4,5,6-tetrahydro-[1,1′-biphenyl]-2-yl)methyl)piperazin-1-yl)benzamide] |  | degrade Bcl-xL in a dose-dependent manner | degrade Bcl-xL in a dose-dependent manner | 1 to 10 nM |  | < 1 nM | ++ (100-10 μM)
< 1 nM | < 1 nM | C[C@@]1(CN2CCC(CN3CCN(c4ccc5c(c4)C(=O)N(C4CCC(=O)NC4=O)C5)CC3)CC2)CCC(c2ccc(Cl)cc2)=C(CN2CCN(c3ccc(C(=O)NS(=O)(=O)c4ccc(N[C@H](CCN5CCCOCC5)CSc5ccccc5)c(S(=O)(=O)C(F)(F)F)c4)cc3)CC2)C1 (stereo partly drawn) [Compound 134] |  |  |  | 1 to 10 nM |  | < 1 nM | ++ (100-10 μM)
< 1 nM | < 1 nM | C[C@@]1(CN2CCCN(c3ccc4c(c3)CN(C3CCC(=O)NC3=O)C4=O)CC2)CCC(c2ccc(Cl)cc2)=C(CN2CCN(c3ccc(C(=O)NS(=O)(=O)c4ccc(N[C@H](CCN5CCCOCC5)CSc5ccccc5)c(S(=O)(=O)C(F)(F)F)c4)cc3)CC2)C1 (stereo partly drawn) [Compound 135, N-((4-(((R)-4-(1,4-oxazepan-4-yl)-1-(phenylthio)butan-2-yl)amino)-3-((trifluoromethyl)sulfonyl)phenyl)sulfonyl)-4-(4-(((4R)-4′-chloro-4-((4-(2-(2,6-dioxopiperidin-3-yl)-1-oxoisoindolin-5-yl)-1,4-diazepan-1-yl)methyl)-4-methyl-3,4,5,6-tetrahydro-[1,1′-biphenyl]-2-yl)methyl)piperazin-1-yl)benzamide] |  |  |  | 10 to 100 nM |  | < 1 nM | ++ (100-10 μM)
 |  | CN(C)CC#Cc1ccc(OCCCc2sc(N3CCc4cccc(C(=O)Nc5nc6ccccc6s5)c4C3)nc2C(=O)O)c(F)c1 [Compound A-1155463] | dose-limiting thrombocytopenia has been observed |  |  |  |  |  | 
